From patent publication US9657022B2, “7-OXO-1,6-diazabicyclo[3.2.1]octane derivatives and their use as antibacterial agents” (WOCKHARDT LIMITED, priority 2014, dated 2017)
In brackets after ≈: the same amount, converted by molar mass. Read-outs that look alike come from different tables or passages of the source.

How the values were obtained:
[1] = tested on: Class C beta-lactamase CMY/DHA (E. coli M50); assay: Beta-lactamase enzyme inhibition (Nitrocefin, crude enzyme); type: biochemical
Description: (§1) Absorbance was measured at 485 nm by UV-spectrophotometer. The IC50 was calculated by plotting absorbance against concentration through Sigmoidal dose response curve using Graph Pad software.
(§2) The enzyme inhibition was expressed as IC50.

[2] = target: T1, Class A beta-lactamase SHV 18 (K. pneumoniae ATCC 700603) (Klebsiella pneumoniae, UniProt P0AD64, E235K/G234A/I4F/R39S); assay: as above; type: biochemical; details: Beta-lactamase enzyme inhibition IC50, Class A, K. pneumoniae ATCC 700603 (SHV 18)
T1 sequence (P0AD64 1-286 I4F/R39S/G234A/E235K): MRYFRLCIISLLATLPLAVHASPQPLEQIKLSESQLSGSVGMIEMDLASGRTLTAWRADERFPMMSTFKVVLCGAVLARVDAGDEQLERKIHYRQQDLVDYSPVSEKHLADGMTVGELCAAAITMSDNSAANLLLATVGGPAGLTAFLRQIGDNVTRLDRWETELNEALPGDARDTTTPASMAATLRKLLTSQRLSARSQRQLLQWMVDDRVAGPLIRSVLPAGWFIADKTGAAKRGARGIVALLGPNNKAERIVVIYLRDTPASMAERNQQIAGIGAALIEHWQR
Description: as §1, §2

[3] = target: T2, Class D beta-lactamase OXA 23 (A. baumannii NCTC 13301) (Acinetobacter baumannii, UniProt Q9L4P2); assay: as above; type: biochemical; details: A. baumannii NCTC 13301 (OXA 23)
T2 construct: preincubated mixture of crude enzyme and the compounds; endogenous in cells; host or cells: A. baumannii NCTC 13301
Description: as §1, §2

[4] = tested on: K. pneumoniae S48 (NDM, SHV, TEM); assay: Antibacterial activity (MIC), agar dilution per CLSI; type: cell-based; details: Klebsiella pneumoniae
Description: (§3) The biological activity of representative compounds according to the invention against various bacterial strains was investigated. In a typical study, overnight grown bacterial cultures were diluted appropriately and inoculated on the agar media containing doubling dilutions of the test compounds. Observations for growth or no growth was performed after 16-20 hours of incubation at 35±2° C. in the ambient air. The overall procedure was performed as per Clinical and Laboratory Standards Institute (CLSI) recommendations, (Clinical and Laboratory Standards Institute (CLSI), Performance Standards for Antimicrobial Susceptibility Testing, 20th Informational Supplement, M07-A9, Volume 32, No. 2, 2012). Molten Mueller Hinton Agar (BD, USA) containing serial dilutions of each antibacterial agent were poured on to the plates and allowed to solidify. Appropriate suspensions from the freshly grown cultures were prepared in normal saline so that about 10^4 CFU/spot of the organism was delivered on to the drug containing agar plates using automated multipoint inoculator (Mast, UK). The plates were incubated in Biochemical oxygen demand (BOD) incubator at 37° C. for 18 hours and then examined for growth.
(§4) The strains selected for study included E. coli NCTC 13353 producing CTX-M15 and OXA-1 beta-lactamase enzymes; K. pneumoniae H521 producing KPC, SHV, TEM beta-lactamase enzymes; and K. pneumoniae S48 producing NDM, SHV, TEM beta-lactamase enzymes. The activities are expressed as Minimum Inhibitory Concentrations (MICs) (mcg/ml).

[5] = tested on: K. pneumoniae H521 (KPC, SHV, TEM); assay: as above; type: cell-based; details: Klebsiella pneumoniae
Description: as §3, §4
(§5) The activities are expressed as Minimum Inhibitory Concentrations (MICs) (mcg/ml).

[6] = tested on: E. coli NCTC 13353 (CTX-M15, OXA-1); assay: as above; type: cell-based; details: Escherichia coli
Description: as §3, §4, §5

[7] = target: Class D beta-lactamase OXA 26 (A. baumannii NCTC 13303) (Acinetobacter baumannii, UniProt Q9F0V2); assay: Beta-lactamase enzyme inhibition (Nitrocefin, crude enzyme); type: biochemical; details: read-out: Beta-lactamase enzyme inhibition IC50, A. baumannii NCTC 13303 (OXA 26)
Description: as §1

[8] = tested on: E. coli NCTC 13353; assay: Zone of inhibition, agar well, with and without ceftazidime; type: cell-based; details: for Diameter of Zone of Inhibition, Compound + Ceftazidime (10 μg/ml): E. coli NCTC 13353; for zone of inhibition at 0.25 µg/disc / zone of inhibition at 0.5 µg/disc / zone of inhibition at 1 µg/disc: Escherichia coli, NCTC13353, read-out: Diameter of Zone of Inhibition, Compound
Description: (§6) In a typical experiment, two sets of plates containing growth media (Molten Mueller Hilton Agar) and bacterial strains were prepared. One set of plates was taken as control (without ceftazidime) and other set contained ceftazidime. The media was allowed to solidify and wells were punched later, into which varying concentrations of compounds according to the invention were poured. A two-fold serial dilution range of each of the compounds according to invention was prepared and 50 μl of each of the dilution was added into the punched well. The plates were then incubated at 37° C. for 18 hours in BOD incubator and diameters of zone of inhibition were measured after the completion of the incubation.
(§7) The Table 6 provides the antibacterial activity of the combination comprising compounds according to invention and ceftazidime. The compounds according to invention were tested at 0.12, 0.25, 0.5 and 1 μg/well.

[9] = tested on: E. coli M50; assay: as above; type: cell-based; details: for Diameter of Zone of Inhibition, Compound + Ceftazidime (10 μg/ml): E. coli M50; for zone of inhibition at 0.25 µg/disc / zone of inhibition at 0.5 µg/disc / zone of inhibition at 1 µg/disc: Escherichia coli, M50, read-out: Diameter of Zone of Inhibition, Compound
Description: as §6, §7

[10] = Class D, read-out: Beta-lactamase enzyme inhibition IC50
[11] = K. pneumoniae H521 (KPC, SHV, TEM), read-out: MIC
[12] = NCTC13353, E. coli NCTC 13353 (CTX-M15, OXA-1), read-out: MIC
[13] = Beta-lactamase enzyme inhibition IC50, Class D
[14] = compound 0.25 μg/well + Ceftazidime 10 μg/ml
[15] = compound 0.5 μg/well + Ceftazidime 10 μg/ml
[16] = compound 1 μg/well + Ceftazidime 10 μg/ml
[17] = compound […] + Ceftazidime 10 μg/ml

T2 sequence (Q9L4P2 18-273): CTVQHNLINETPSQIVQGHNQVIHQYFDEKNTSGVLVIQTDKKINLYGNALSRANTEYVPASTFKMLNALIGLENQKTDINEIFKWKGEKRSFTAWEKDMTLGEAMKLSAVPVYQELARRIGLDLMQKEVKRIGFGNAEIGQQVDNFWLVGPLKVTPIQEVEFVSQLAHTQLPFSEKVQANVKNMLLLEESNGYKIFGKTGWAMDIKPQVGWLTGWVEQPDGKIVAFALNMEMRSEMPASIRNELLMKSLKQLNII
Sequence of Class D beta-lactamase OXA 26 (A. baumannii NCTC 13303) (Q9F0V2 entry or part of it): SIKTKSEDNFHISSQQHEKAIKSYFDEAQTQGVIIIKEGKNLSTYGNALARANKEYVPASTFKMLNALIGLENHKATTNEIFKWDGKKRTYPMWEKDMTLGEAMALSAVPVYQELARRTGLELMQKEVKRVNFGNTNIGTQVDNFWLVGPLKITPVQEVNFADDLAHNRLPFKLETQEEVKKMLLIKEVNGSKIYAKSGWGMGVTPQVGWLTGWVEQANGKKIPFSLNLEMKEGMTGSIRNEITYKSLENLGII

With `O=C(CC1CNCCN1)NNC(=O)[C@@H]1CC[C@@H]2CN1C(=O)N2OS(=O)(=O)O` (mixture of isomers) [Example 7, (2S,5R)-sulfuric acid mono-{2-[N′-(2-(RS)-piperazin-2-yl-acetyl)-hydrazinocarbonyl]-7-oxo-1,6-diaza-bicyclo[3.2.1]oct-6-yl}ester] the IC50 [1] was 70 nM, the IC50 [2] was 67 nM and the IC50 [3, 10] was 2840 nM. It also gave an MIC [4] of 2 µg/mL, an MIC [5, 11] of 4 µg/mL and an MIC [6, 12] of 2 µg/mL.
Work on `CC(C)(O/N=C(\C(=O)N[C@@H]1C(=O)N2C(C(=O)[O-])=C(C[n+]3ccccc3)CS[C@H]12)c1csc(N)n1)C(=O)O` [Ceftazidime, ceftazidime, reference compound] yielded an MIC ([4]; K. pneomoniae S48 (NDM, SHV, TEM), read-out: MIC) greater than 32 µg/mL, an MIC [5, 11] greater than 32 µg/mL and an MIC [6, 12] of 32 µg/mL (≈ 58.5 µM).
With `O=C(O)[C@H]1/C(=C/CO)O[C@@H]2CC(=O)N21` [Clavulanic acid, clavulanic acid, reference compound] the IC50 [3, 13] was greater than 10000 nM and the IC50 [7] was greater than 10000 nM.
In the case of `O=C(CC1CNC1)NNC(=O)[C@@H]1CC[C@@H]2CN1C(=O)N2OS(=O)(=O)O` [Example 2, (2S,5R)-sulfuric acid mono-{2-[N′-(2-azetidin-3-yl-acetyl)-hydrazinocarbonyl]-7-oxo-1,6-diaza-bicyclo[3.2.1]oct-6-yl}ester], the IC50 [1] is reported as 103 nM, the IC50 [2] is reported as 97 nM and the IC50 [3, 13] is reported as 6190 nM. For the same molecule, the “Diameter of Zone of Inhibition, Compound + Ceftazidime (10 μg/ml)” value (shortened to “Diameter of Zone of Inhibition”) [8, 14] was 24 mm, the “Diameter of Zone of Inhibition” value [8, 15] was 26 mm and the “Diameter of Zone of Inhibition” value [8, 16] was 30 mm. For the same molecule, the “Diameter of Zone of Inhibition” value [8, 17] was 21 mm, the zone of inhibition at 0.25 µg/disc [8] was 10 mm and the zone of inhibition at 0.5 µg/disc [8] was 13 mm. The zone of inhibition at 1 µg/disc [8] was 15 mm, the “Diameter of Zone of Inhibition” value [9, 14] was 19 mm and the “Diameter of Zone of Inhibition” value [9, 15] was 22 mm. For the same molecule, the “Diameter of Zone of Inhibition” value [9, 16] was 23.5 mm, the “Diameter of Zone of Inhibition” value [9, 17] was 15 mm and the zone of inhibition at 0.25 µg/disc [9] was 9 mm. For the same molecule, the zone of inhibition at 0.5 µg/disc [9] was 12 mm, the zone of inhibition at 1 µg/disc [9] was 15 mm and the MIC [4] was 2 µg/mL (≈ 5.3 µM). It also gave an MIC [5] of 4 µg/mL (≈ 10.6 µM) and an MIC ([6]; NCTC13353) of 1 µg/mL (≈ 2.65 µM).
For `O=C(C[C@@H]1CCCCN1)NNC(=O)[C@@H]1CC[C@@H]2CN1C(=O)N2OS(=O)(=O)O` [Example 3, (2S,5R)-sulfuric acid mono-{2-[N′-(2-(S)-piperidin-2-yl-acetyl)-hydrazinocarbonyl]-7-oxo-1,6-diaza-bicyclo[3.2.1]oct-6-yl}ester], the IC50 [1] was 52 nM, the IC50 [2] was 74 nM and the IC50 [3, 10] was 2110 nM. For the same molecule, the “Diameter of Zone of Inhibition” value [8, 14] was 22 mm, the “Diameter of Zone of Inhibition” value [8, 15] was 27 mm and the “Diameter of Zone of Inhibition” value [8, 16] was 30 mm. For the same molecule, the “Diameter of Zone of Inhibition” value [8, 17] was 20 mm, the zone of inhibition at 0.25 µg/disc [8] was 14 mm and the zone of inhibition at 0.5 µg/disc [8] was 15 mm. The zone of inhibition at 1 µg/disc [8] was 17 mm, the “Diameter of Zone of Inhibition” value [9, 14] was 17.5 mm and the “Diameter of Zone of Inhibition” value [9, 15] was 20 mm. The “Diameter of Zone of Inhibition” value [9, 16] was 22.5 mm, the “Diameter of Zone of Inhibition” value [9, 17] was 14.5 mm and the zone of inhibition at 0.25 µg/disc [9] was 13 mm. For the same molecule, the zone of inhibition at 0.5 µg/disc [9] was 16 mm, the zone of inhibition at 1 µg/disc [9] was 17 mm and the MIC [4] was 0.5 µg/mL (≈ 1.23 µM). For the same molecule, the MIC [5] was 0.5 µg/mL (≈ 1.23 µM) and the MIC ([6]; NCTC13353) was 0.25 µg/mL (≈ 0.617 µM).
Molecule `O=C(C[C@H]1CCCCN1)NNC(=O)[C@@H]1CC[C@@H]2CN1C(=O)N2OS(=O)(=O)O` [Example 4, (2S,5R)-sulfuric acid mono-{2-[N′-(2-(R)-piperidin-2-yl-acetyl)-hydrazinocarbonyl]-7-oxo-1,6-diaza-bicyclo[3.2.1]oct-6-yl}ester] has an IC50 [1] of 56 nM, an IC50 [2] of 170 nM and an IC50 [3, 10] of 2930 nM. For the same molecule, the MIC [4] was 2 µg/mL (≈ 4.93 µM), the MIC [5] was 4 µg/mL (≈ 9.87 µM) and the MIC ([6]; NCTC13353) was 2 µg/mL (≈ 4.93 µM).
`O=C(C[C@@H]1CCCNC1)NNC(=O)[C@@H]1CC[C@@H]2CN1C(=O)N2OS(=O)(=O)O` [Example 5, (2S,5R)-sulfuric acid mono-{2-[N′-(2-(S)-piperidin-3-yl-acetyl)-hydrazinocarbonyl]-7-oxo-1,6-diaza-bicyclo[3.2.1]oct-6-yl}ester] was tested, and the IC50 [2] was 160 nM, the IC50 [3, 10] was 1730 nM and the MIC ([4]; 18 h) was 1 µg/mL (≈ 2.47 µM). The MIC ([5]; 18 h) was 4 µg/mL (≈ 9.87 µM) and the MIC ([6]; NCTC13353, 18 h) was 0.5 µg/mL (≈ 1.23 µM).
Molecule `O=C(CC1CCNCC1)NNC(=O)[C@@H]1CC[C@@H]2CN1C(=O)N2OS(=O)(=O)O` [Example 6, (2S,5R)-sulfuric acid mono-{2-[N′-(2-piperidin-4-yl-acetyl)-hydrazinocarbonyl]-7-oxo-1,6-diaza-bicyclo[3.2.1]oct-6-yl}ester] has an IC50 [1] of 37 nM, an IC50 [2] of 60 nM and an IC50 [3, 10] of 1620 nM. It also gave an MIC [4] of 1 µg/mL (≈ 2.47 µM), an MIC [5] of 2 µg/mL (≈ 4.93 µM) and an MIC ([6]; NCTC13353) of 0.5 µg/mL (≈ 1.23 µM).
Molecule `C[C@@H](O)[C@H]1C(=O)N2C(C(=O)O)=C(SCCN=CN)C[C@H]12` [Imipenem, imipenem, reference compound] has an MIC [6, 12] of 0.25 µg/mL (≈ 0.835 µM).
